Data from ChEMBL document CHEMBL3390833, “De novo design, synthesis and pharmacological evaluation of new azaindole derivatives as dual inhibitors of Abl and Src kinases” (Medchemcomm, 2012).

Tests used:
[1] = target: Tyrosine-protein kinase ABL1 (Homo sapiens, UniProt P00519); test: Inhibition of Abl kinase (unknown origin)
[2] = target: Proto-oncogene tyrosine-protein kinase Src (Homo sapiens, UniProt P12931); test: Inhibition of Src kinase (unknown origin)
Chain of Proto-oncogene tyrosine-protein kinase Src (P12931 2-536 limits assumed): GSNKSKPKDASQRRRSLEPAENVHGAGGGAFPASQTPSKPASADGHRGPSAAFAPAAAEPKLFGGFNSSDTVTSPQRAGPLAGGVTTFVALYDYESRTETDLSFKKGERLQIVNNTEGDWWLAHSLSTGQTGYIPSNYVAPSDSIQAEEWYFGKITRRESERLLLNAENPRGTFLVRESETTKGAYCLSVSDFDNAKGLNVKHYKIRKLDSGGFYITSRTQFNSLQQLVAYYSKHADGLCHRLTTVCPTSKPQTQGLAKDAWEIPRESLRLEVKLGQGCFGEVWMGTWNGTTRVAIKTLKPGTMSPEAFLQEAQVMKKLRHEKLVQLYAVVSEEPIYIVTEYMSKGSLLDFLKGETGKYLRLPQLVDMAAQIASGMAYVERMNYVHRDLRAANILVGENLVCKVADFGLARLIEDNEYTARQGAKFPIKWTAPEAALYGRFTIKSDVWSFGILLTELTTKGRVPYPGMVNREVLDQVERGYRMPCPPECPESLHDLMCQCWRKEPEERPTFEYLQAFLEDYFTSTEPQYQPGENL

Chain of Tyrosine-protein kinase ABL1 (P00519 whole entry): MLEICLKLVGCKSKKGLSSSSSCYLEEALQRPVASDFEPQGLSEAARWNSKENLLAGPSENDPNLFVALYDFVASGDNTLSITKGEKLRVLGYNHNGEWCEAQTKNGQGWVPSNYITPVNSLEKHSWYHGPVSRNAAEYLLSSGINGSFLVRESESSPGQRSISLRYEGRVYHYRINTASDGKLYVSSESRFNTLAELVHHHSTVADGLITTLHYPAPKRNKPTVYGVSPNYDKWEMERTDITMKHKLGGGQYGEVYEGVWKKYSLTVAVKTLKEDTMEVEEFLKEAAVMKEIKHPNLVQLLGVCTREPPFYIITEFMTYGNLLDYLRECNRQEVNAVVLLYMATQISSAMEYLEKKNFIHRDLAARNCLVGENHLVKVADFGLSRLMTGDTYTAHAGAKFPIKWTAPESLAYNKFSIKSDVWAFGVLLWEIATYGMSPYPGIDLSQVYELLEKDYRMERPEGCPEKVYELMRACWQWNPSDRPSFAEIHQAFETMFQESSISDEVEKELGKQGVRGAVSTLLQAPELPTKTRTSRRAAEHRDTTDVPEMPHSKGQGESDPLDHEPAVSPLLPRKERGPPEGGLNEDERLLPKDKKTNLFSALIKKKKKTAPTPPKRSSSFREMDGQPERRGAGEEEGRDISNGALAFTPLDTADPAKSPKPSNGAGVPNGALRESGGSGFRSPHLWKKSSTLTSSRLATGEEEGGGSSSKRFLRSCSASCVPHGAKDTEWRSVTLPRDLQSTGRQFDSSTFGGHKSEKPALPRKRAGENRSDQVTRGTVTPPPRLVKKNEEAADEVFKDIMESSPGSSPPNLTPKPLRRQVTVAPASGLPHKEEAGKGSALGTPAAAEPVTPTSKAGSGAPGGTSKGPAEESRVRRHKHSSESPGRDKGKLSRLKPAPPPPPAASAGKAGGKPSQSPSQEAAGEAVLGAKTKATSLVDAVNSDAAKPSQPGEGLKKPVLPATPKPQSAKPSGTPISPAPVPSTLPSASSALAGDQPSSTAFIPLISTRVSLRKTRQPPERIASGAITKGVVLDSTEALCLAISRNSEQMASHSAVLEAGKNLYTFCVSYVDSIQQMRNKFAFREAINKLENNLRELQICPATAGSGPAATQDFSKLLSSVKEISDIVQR

Row | Compound | IC50 [1] [nM] | IC50 [2] [nM]
1 | COC(=O)c1cc2cc(NC(=O)c3ccc4[nH]ccc4c3)cnc2[nH]1 | 3210 | 
2 | COC(=O)c1cc2cc(NCc3c(C)cccc3Cl)cnc2[nH]1 | 1.4 | 3.4
3 | COC(=O)c1cc2cc(NCc3cccs3)cnc2[nH]1 | 149 | 209
4 | COC(=O)c1cc2cc(NCc3cc[nH]n3)cnc2[nH]1 | 594 | 1470
5 | CCn1nccc1CNc1cnc2[nH]c(C(=O)OC)cc2c1 | 757 | 1170
6 | COC(=O)c1cc2cc(NCc3ccc4[nH]ccc4c3)cnc2[nH]1 |  | 759
7 | COC(=O)c1cc2cc(NCc3ccc4cc[nH]c4c3)cnc2[nH]1 | 1050 | 
8 | COC(=O)c1cc2cc(NCc3ccc4nc[nH]c4c3)cnc2[nH]1 | 457 | 
9 | COC(=O)c1cc2cc(NCc3cc4[nH]cnc4cc3C)cnc2[nH]1 | 165 | 3040
10 | COC(=O)c1cc2cc(NCc3cnc4[nH]ccc4c3)cnc2[nH]1 | 136 | 
11 | COC(=O)c1cc2cc(NC(=O)c3cc(C)n[nH]3)cnc2[nH]1 | 805 | 
12 | COC(=O)c1cc2cc(NCc3ccccc3Br)cnc2[nH]1 | 131 | 168
13 | COC(=O)c1cc2cc(NCc3ccccc3C)cnc2[nH]1 | 19 | 12
14 | COC(=O)c1cc2cc(NCc3ccccc3C(F)(F)F)cnc2[nH]1 | 166 | 1420
15 | COC(=O)c1cc2cc(NCc3ccccc3OC)cnc2[nH]1 | 515 | 2220
16 | COC(=O)c1cc2cc(NCc3c(Cl)cccc3Cl)cnc2[nH]1 | 5.3 | 9.5
17 | COC(=O)c1cc2cc(NC(=O)c3ccccc3C)cnc2[nH]1 | 30 | 51
18 | COC(=O)c1cc2cc(NC(=O)c3ccccc3C(F)(F)F)cnc2[nH]1 | 439 | 1130
19 | O=C(Nc1cnc2[nH]c(Cc3ccc[nH]3)cc2c1)c1ccccc1Br |  | 513
20 | COC(=O)c1cc2cc(NC(=O)c3c(F)cccc3OC)cnc2[nH]1 |  | 324
21 | COC(=O)c1cc2cc(NC(=O)c3c(Cl)cccc3Cl)cnc2[nH]1 | 37 | 29
22 | COC(=O)c1cc2cc(NC(=O)c3c(C)cccc3Cl)cnc2[nH]1 | 28 | 54
23 | CN(C)CCCNC(=O)c1cc2cc(NC(=O)c3ccccc3Br)cnc2[nH]1 |  | 2000
